According to patent US20250263408A1 (Uniquest Pty Ltd, priority 2022, published 2025):

Experiments:
Ba/F3-Syk cells = target: T1, Ba/F3-Syk cells (Homo sapiens, UniProt P43405); test: Ba/F3 Proliferation Assay, Ba/F3-Syk cells (Resazurin); assay type: cell-based; details: 48-hour incubation
T1 construct: fused on or other part: Possible but unprinted fusion partner: TEL (ETV6), the usual partner for Ba/F3 lines transformed by Syk; Nothing on a partner is printed
Method: (§1) Ba/F3-Syk and Ba/F3-WT (wild type) cells were maintained at ≤1×10^6 cell/mL in RPMI (Life Technologies) with 10% FBS at 37° C. and 5% CO2 for a maximum of four weeks. Ba/F3-WT additionally contained 2 ng/mL mIL-3 (R&D Systems) to induce cellular growth. Cells were counted and dispensed at 5000 cells/well using a Multidrop Liquid Dispenser in a volume of 45 μL into black 384-well TC treated plates (Greiner) and incubated for four hours in complete media (+mIL-3 for Ba/F3-WT). Compounds were serially diluted in 100% DMSO, prior to an intermediate dilution in RPMI media. 5 μL of compound (0.4% final DMSO) was added to the cells, followed by a 48-hour incubation period. 5 μL of Resazurin (60 μM final) was then added and cells were incubated at 37° C. for three hours, before fluorescence (λex530/λem585) was measured using an Ensight Multimode Plate Reader (Perkin Elmer).

[1] = system: Ba/F3-WT (wild type) cells; test: Ba/F3 Proliferation Assay, Ba/F3-WT (wild type) cells with mIL-3 (Resazurin); assay type: cell-based; details: Mus musculus, BaF3, 48 h, Ba/F3-WT cells +mIL-3, 48-hour incubation
Method: as §1

CC(C)n1cc(-c2cc3ncccc3c(OC[C@@H]3CNCC4(CC4)O3)n2)cn1 [Compound 2.62, 5-{[(5S)-4-oxa-7-azaspiro[2.5]octan-5-yl]methoxy}-7-[1-(propan-2-yl)-1H-pyrazol-4-yl]-1,6-naphthyridine]
EC50 (Ba/F3-Syk cells): 0.0314 µM | EC50 [1]: 1.29 µM

C[C@H](Oc1nc(-c2ccn(C)c2)cc2ncccc12)[C@@H]1CNCC(C)(C)O1 [Compound 2.64, 5-[(1S)-1-[(2S)-6,6-dimethylmorpholin-2-yl]ethoxy]-7-(1-methyl-1H-pyrrol-3-yl)-1,6-naphthyridine]
EC50 (Ba/F3-Syk cells): 0.253 µM | EC50 [1]: > 10 µM

C[C@@H](Oc1nc(-c2ccn(C)c2)cc2ncccc12)[C@@H]1CNCC(C)(C)O1 [Compound 2.65, 5-[(1R)-1-[(2S)-6,6-dimethylmorpholin-2-yl]ethoxy]-7-(1-methyl-1H-pyrrol-3-yl)-1,6-naphthyridine]
EC50 (Ba/F3-Syk cells): 0.0117 µM | EC50 [1]: 2.54 µM

C[C@@H](Oc1nc(-c2ccn(C(C)(C)C)c2)cc2ncccc12)[C@@H]1CNCCO1 [Compound 2.68, 7-(1-tert-butyl-1H-pyrrol-3-yl)-5-[(1R)-1-[(2S)-morpholin-2-yl]ethoxy]-1,6-naphthyridine]
EC50 (Ba/F3-Syk cells): 0.0139 µM | EC50 [1]: 4.37 µM

CC(C)n1cc(-c2cc3ncccc3c(OC[C@@H]3CNCCCO3)n2)cn1 [Compound 2.70, 5-{[(2S)-1,4-oxazepan-2-yl]methoxy}-7-[1-(propan-2-yl)-1H-pyrazol-4-yl]-1,6-naphthyridine]
EC50 (Ba/F3-Syk cells): 0.0191 µM | EC50 [1]: 1.54 µM

Cn1cc(-c2cc3ncccc3c(OC[C@H]3CN[C@@H]4CCC[C@@H]4O3)n2)cn1 [Compound 2.72, 5-{[(2R,4aR,7aS)-octahydrocyclopenta[b][1,4]oxazin-2-yl]methoxy}-7-(1-methyl-1H-pyrazol-4-yl)-1,6-naphthyridine]
EC50 (Ba/F3-Syk cells): 0.266 µM | EC50 [1]: 1.9 µM

Cn1cc(-c2cc3ncccc3c(OC[C@@H]3CN[C@H]4CCC[C@H]4O3)n2)cn1 [Compound 2.73, 5-{[(2S,4aS,7aR)-octahydrocyclopenta[b][1,4]oxazin-2-yl]methoxy}-7-(1-methyl-1H-pyrazol-4-yl)-1,6-naphthyridine]
EC50 (Ba/F3-Syk cells): 0.0322 µM | EC50 [1]: 3.38 µM

C[C@H]1CNC[C@@H](COc2nc(-c3cnn(C)c3)cc3ncccc23)O1 [Compound 2.74, 7-(1-methyl-1H-pyrazol-4-yl)-5-{[(25,6S)-6-methylmorpholin-2-yl]methoxy}-1,6-naphthyridine]
EC50 (Ba/F3-Syk cells): 0.109 µM | EC50 [1]: 2.89 µM

C[C@H]1CNC[C@@H](COc2nc(-c3ccn(C)c3)cc3ncccc23)O1 [Compound 2.75, 7-(1-methyl-1H-pyrrol-3-yl)-5-{[(2,6S)-6-methylmorpholin-2-yl]methoxy}-1,6-naphthyridine]
EC50 (Ba/F3-Syk cells): 0.0678 µM | EC50 [1]: 3.92 µM

C[C@@H]1CNC[C@@H](COc2nc(-c3ccn(C)c3)cc3ncccc23)O1 [Compound 2.77, 7-(1-methyl-1H-pyrrol-3-yl)-5-{[(2S,6R)-6-methylmorpholin-2-yl]methoxy}-1,6-naphthyridine]
EC50 (Ba/F3-Syk cells): 0.0427 µM | EC50 [1]: 5.32 µM

O=C1CCn2cc(-c3cc4ncccc4c(OC[C@@H]4CNCCO4)n3)cc21 [Compound 2.78, 6-(5-{[(2S)-morpholin-2-yl]methoxy}-1,6-naphthyridin-7-yl)-2,3-dihydro-1H-pyrrolizin-1-one]
EC50 (Ba/F3-Syk cells): 0.147 µM | EC50 [1]: 4.85 µM

Cn1ccc(-c2cc3ncccc3c(OC[C@@H]3CNC(C)(C)CCO3)n2)c1 [Compound 2.79, 5-{[(2S)-5,5-dimethyl-1,4-oxazepan-2-yl]methoxy}-7-(1-methyl-1H-pyrrol-3-yl)-1,6-naphthyridine]
EC50 (Ba/F3-Syk cells): 0.596 µM | EC50 [1]: > 10 µM

CC1(C)CNC[C@H](COc2nc(-c3cnn(C(C)(C)C)c3)cc3ncccc23)O1 [Compound 2.82, 7-(1-tert-butyl-1H-pyrazol-4-yl)-5-{[(2R)-6,6-dimethylmorpholin-2-yl]methoxy}-1,6-naphthyridine]
EC50 (Ba/F3-Syk cells): 0.127 µM | EC50 [1]: 2.27 µM
